The record followed here is US20250177566A1, “USE OF CHEMICAL EPIGENETIC MODIFIERS TO MODULATE GENE EXPRESSION” (The University of North Carolina at Chapel Hill, priority 2022, published 2025).

The structures appear in SMILES notation.

What all share (type): cell-based, human
In one assay the test system is HCT116 cells. Nature of the assay: alamarBlue cell viability assay, HCT116. As to the method:
(§1) FIGS. 8A-8B show alamarBlue cell viability assays. HEK293T or HCT116 cells were plated in 96-well plates 24 hrs before chemical treatment of 0.001, 0.01, 0.1, 1, 10, 50, and 100 μM CEM207 was added. Another group of cells were treated with all concentrations of CEM207 mentioned above along with 200 nM CEM87 in all samples. After 4 days of chemical exposure, cell growth was measured by fluorescence. […] HCT116 cells were stably infected with dCas9 and MS2-FKBP*x2 constructs and transfected with CXCR4 gRNA. After 24 hrs of 25 nM CEM207 treatment, ChIP-qPCR was performed at different base pair distances from the transcription start site of CXCR4 gene. […] Error bars represent the standard deviation.
(§2) AlamarBlue cell viability assay. HEK293T or HCT116 cells were placed in black 96-well plates with clear bottom. 24 hrs later, media was exchanged to include 0.001, 0.01, 0.1, 1, 10, 50, 100 μM concentrations of CEM207, or all CEM207 concentrations above along with 200 nM CEM87. After 4 days of chemical exposure, alamarBlue Cell Viability Reagent (Invitrogen, DAL1025) was added to each well. Cells were incubated at 37° C. for 4 hrs and fluorescence was read using the TECAN Infinite F200 Fluorescence Microplate Reader. IC50 values were calculated using GraphPad Prism 9.
Background: Resazurin is reduced to fluorescent resorufin, in cell work by metabolically active cells.

The subject of a further assay is HEK293T cells. Nature of the assay: alamarBlue cell viability assay, HEK293T. On the procedure:
as §1, §2

The test system of assay [1] is firefly luciferase expression cassette. Nature of the assay: Transfection evaluating multiple promoters, SLF* CEM system, dual luciferase assay, 293T Renilla. As to conditions: FIGS. 15A and 15B; ybTATA, miniCMV, Het, Ef1a core, hPGK; 0, 5, 15 or 50 nM CEM207. As to the method: Next, it was determined whether SLF*CEMs can regulate AAV. The cassette shown in FIG. 14A was inserted into rAAV2 and infected into HEK293T Renilla. […] Next, it was explored whether the cassette was truly modular by varying the promoter while retaining SLF* CEM successful activation of rAAV2.
Transfection Evaluating Multiple Promoters—SLF* CEM System with 0, 5, 15 or 50 nM CEM207:
Day 1 (0 h): 293T cells with stably infected Renilla under the control of full length Ef1a promoter were plated in a 96 well plate; 10 k cells/well, 100 μL media/well. All conditions were plated in biological triplicate.
Day 2 (24 h): A PEI transfection mixture of each construct (Jet, ybTATA, miniCMV, Ef1a core, and hPGK) was prepared and added to each well: 0.1 μg of DNA, 0.3 μL of PEI, and 4 μL of Opti-MEM per well, with PEI added last. Reagents were mixed well and incubated for 15 minutes. 4 μL of the appropriate transfection mixture was added to each well. […]
Day 5 (96 h): […] Data was obtained using the Promega Dula Luciferase Reporter (DLR) assay: first, the cells were washed with 100 μL of PBS/well dropwise followed by 20 μL of 1× passive lysis buffer (PLB) added to each well. The cells were incubated for 15 minutes in PLB and the assay ran on pheraSTAR microplate reader with 25 μL of each DLR reagent, gain=2000.

For the compound `CC[C@H](C(=O)N1CCCC[C@H]1C(=O)O[C@H](CCc1ccc(OC)c(OC)c1)c1cccc(OCC(=O)NCCOCCOCCNC(=O)C[C@@H]2N=C(c3ccc(Cl)cc3)c3c(sc(C)c3C)-n3c(C)nnc32)c1)c1cc(OC)c(OC)c(OC)c1` [CEM207, (R)-1-(3-((14-((S)-4-(4-Chlorophenyl)-2,3,9-trimethyl-6H-thieno[3,2-f][1,2,4]triazolo[4,3-a][1,4]diazepin-6-yl)-2,13-dioxo-6,9-dioxa-3,12-diazatetradecyl)oxy)phenyl)-3-(3,4-dimethoxyphenyl) propyl(S)-1-((S)-2-(3,4,5-trimethoxyphenyl)butanoyl) piperidine-2-carboxylate], the 50% inhibitory concentration (IC50) – broadly, the concentration that inhibits the measured activity by half – came out at 870 nM with HCT116 cells (CEM207 alone, 4 days of exposure); 359 nM in the assay with HCT116 cells (CEM207 in the background of 200 nM CEM87, 4 days of exposure); 106 nM with HEK293T cells (CEM207 treatment alone, 4 days of exposure); 78.6 nM in the assay on HEK293T cells (treated simultaneously with 200 nM CEM87, 4 days of exposure). Besides, in assay [1], the “activation with varied minimal promoters” value is “tolerates a variety of minimal promoters”.
